How the values were obtained:
[1] = target: T1, Receptor-type tyrosine-protein kinase FLT3 (Homo sapiens, UniProt P36888)
T1 sequence (P36888 whole entry): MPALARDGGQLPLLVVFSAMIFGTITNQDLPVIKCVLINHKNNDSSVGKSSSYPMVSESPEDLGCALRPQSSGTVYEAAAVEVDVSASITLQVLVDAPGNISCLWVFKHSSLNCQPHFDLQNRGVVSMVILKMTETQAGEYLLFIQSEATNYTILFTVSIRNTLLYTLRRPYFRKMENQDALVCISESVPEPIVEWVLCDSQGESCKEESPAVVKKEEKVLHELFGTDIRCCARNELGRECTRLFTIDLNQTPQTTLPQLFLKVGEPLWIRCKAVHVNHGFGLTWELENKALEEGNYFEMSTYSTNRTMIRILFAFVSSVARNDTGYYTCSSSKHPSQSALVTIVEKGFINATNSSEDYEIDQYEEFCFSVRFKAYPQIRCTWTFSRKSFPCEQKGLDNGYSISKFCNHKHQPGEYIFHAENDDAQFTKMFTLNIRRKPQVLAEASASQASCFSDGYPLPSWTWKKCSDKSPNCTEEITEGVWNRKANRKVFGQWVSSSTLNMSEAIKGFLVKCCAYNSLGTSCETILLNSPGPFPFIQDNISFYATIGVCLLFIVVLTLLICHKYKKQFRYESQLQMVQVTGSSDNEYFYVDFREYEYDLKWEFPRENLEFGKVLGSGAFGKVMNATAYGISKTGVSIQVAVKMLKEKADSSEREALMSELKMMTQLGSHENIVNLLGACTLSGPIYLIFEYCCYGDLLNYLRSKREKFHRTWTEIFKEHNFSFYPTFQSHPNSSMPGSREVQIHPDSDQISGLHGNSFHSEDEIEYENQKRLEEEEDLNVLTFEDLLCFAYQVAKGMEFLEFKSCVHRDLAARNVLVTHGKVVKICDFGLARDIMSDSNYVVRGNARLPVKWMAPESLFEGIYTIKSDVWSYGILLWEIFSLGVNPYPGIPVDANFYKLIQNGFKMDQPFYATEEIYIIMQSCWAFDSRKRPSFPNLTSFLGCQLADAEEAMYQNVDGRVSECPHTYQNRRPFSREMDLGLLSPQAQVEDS

[2] = target: Receptor-type tyrosine-protein kinase FLT3 (Homo sapiens) (UniProt P36888); details: at 20 µM
[3] = test system: Receptor-type tyrosine-protein kinase FLT3 (Homo sapiens), P36888 [UNDEFINED MUTATION]; test: Inhibition of FLT3 ITD mutant (unknown origin) expressed in mouse BAF3 cells assessed as cell growth inhibition after 48 hrs by CellTiter-Glo assay; format: cell-based
[4] = test system: Receptor-type tyrosine-protein kinase FLT3 (Homo sapiens), P36888 [UNDEFINED MUTATION]; test: Inhibition of FLT3 ITD mutant in human MOLM14 cells assessed as cell growth inhibition after 48 hrs by CellTiter-Glo assay; format: cell-based; details: MOLM-14
[5] = test system: Receptor-type tyrosine-protein kinase FLT3 (Homo sapiens), P36888 [UNDEFINED MUTATION]; test: Inhibition of FLT3 ITD mutant in human MV4-11 cells assessed as cell growth inhibition after 48 hrs by CellTiter-Glo assay; format: cell-based
[6] = test system: Receptor-type tyrosine-protein kinase FLT3 (Homo sapiens), P36888 [UNDEFINED MUTATION]; test: Inhibition of FLT3 ITD D835V mutant (unknown origin) expressed in mouse BAF3 cells assessed as cell growth inhibition after 48 hrs by CellTiter-Glo assay; format: cell-based
[7] = test system: Receptor-type tyrosine-protein kinase FLT3 (Homo sapiens), P36888 [UNDEFINED MUTATION]; test: Inhibition of FLT3 ITD F691L mutant (unknown origin) expressed in mouse BAF3 cells assessed as cell growth inhibition after 48 hrs by CellTiter-Glo assay; format: cell-based

Row | SMILES | IC50 [1] [nM] | inhibition [2] [%] | further results
1 | N#Cc1cc(-c2cnc3cc(-c4ccco4)ccn23)ccc1F | 470 | 98.7 | –
2 | c1ccn2ccnc2c1 | – | 14.6 | –
3 | N#CCc1ccc(-c2cnc3cc(-c4cccs4)ccn23)cc1 | 51 | 98 | –
4 | COc1ccc(-c2ccn3c(-c4ccc(F)c(C#N)c4)cnc3c2)cc1 | – | 81.4 | –
5 | N#Cc1cc(-c2cnc3ccccn23)ccc1F | – | 61.3 | –
6 | N#CCc1ccc(-c2cnc3cc(-c4ccco4)ccn23)cc1 | 190 | 97.8 | –
7 | COc1ccc(-c2ccn3c(-c4ccc(F)cc4)cnc3c2)cc1 | 78 | 98.6 | –
8 | N#CCc1ccc(-c2cnc3cc(-c4ccccc4)ccn23)cc1 | 550 | 96.4 | –
9 | Cc1ccc(-c2cnc3cc(-c4ccccc4)ccn23)cc1 | 300 | 94.1 | –
10 | COc1ccc(-c2ccn3c(-c4ccc(CC#N)cc4)cnc3c2)cc1 | 430 | 91 | –
11 | Fc1ccc(-c2cnc3cc(-c4ccccc4)ccn23)cc1 | 16 | 98.8 | GI50 [3]: 333 nM; GI50 [4]: 513 nM; GI50 [5]: 706 nM
12 | Cc1ccc(-c2cnc3cc(-c4cccs4)ccn23)cc1 | – | 89.7 | –
13 | c1ccc(-c2ccn3ccnc3c2)cc1 | – | 0 | –
14 | c1coc(-c2ccn3ccnc3c2)c1 | – | 67.1 | –
15 | Cc1ccc(-c2cnc3cc(-c4ccco4)ccn23)cc1 | 160 | 95.5 | –
16 | c1csc(-c2ccn3ccnc3c2)c1 | – | 79.8 | –
17 | Fc1ccc(-c2cnc3ccccn23)cc1 | 480 | 94.8 | –
18 | N#Cc1cc(-c2cnc3cc(-c4ccccc4)ccn23)ccc1F | 230 | 94.1 | –
19 | Clc1ccn2ccnc2c1 | – | 23.8 | –
20 | Cc1ccc(-c2cnc3ccccn23)cc1 | – | 77 | –
21 | COc1ccc(-c2ccn3c(-c4ccc(C)cc4)cnc3c2)cc1 | 440 | 91.4 | –
22 | Fc1ccc(-c2cnc3cc(-c4ccco4)ccn23)cc1 | 41 | 99.3 | GI50 [3]: 484 nM; GI50 [6]: > 1000 nM; GI50 [7]: > 1000 nM; GI50 [4]: 712 nM; GI50 [5]: 830 nM
23 | N#Cc1cc(-c2cnc3cc(-c4cccs4)ccn23)ccc1F | – | 29.7 | –
24 | COc1ccc(-c2ccn3ccnc3c2)cc1 | – | 33.9 | –
25 | N#CCc1ccc(-c2cnc3ccccn23)cc1 | – | 20 | –
